Laboratory results reported in article PMC12471852, “Design and Synthesis of Marine-Inspired Itampolin A Derivatives to Overcome Chemoresistance in NSCLC via Cholesterol Homeostasis Modulation” (Marine Drugs, 2025).
Several values for one entry are separate records, joined by “and”; a condition that tells them apart may be missing. Equal entries are not always repeated. Entries after “also recorded” stand apart in the source; their conditions may differ.

Key:
PC9 cells [1] = assay: Intracellular total cholesterol quantification, PC9 cells; assay type: cell-based, human; settings: PC9, 24 h treatment
Description: (§1) Following sample collection, intracellular total cholesterol levels were quantified using a commercial Total Cholesterol (T-CHO) assay kit (Nanjing Jiancheng Bioengineering Institute, Nanjing, China) according to the manufacturer’s protocol. Cells were treated as indicated 24 h prior to analysis. Total cellular protein was extracted, and protein concentration was determined using a bicinchoninic acid (BCA) assay. Protein aliquots were loaded in duplicate into a 96-well microplate. Reagents were added sequentially as specified in the kit instructions. After incubation at 37 °C for 10 min, absorbance was measured at 510 nm using a microplate reader. Total cholesterol content was normalized to cellular protein concentration and expressed as μg cholesterol per mg protein.

PC9 cells [2] = assay: MTT anti-proliferation assay, PC9 cells; assay type: cell-based, human; settings: for MTT, PC9, value relative to control (=100), single replicate: 24 h
Description: (§2) To evaluate the tumor-selective activity of compounds 4l and 4m, dose–response studies were performed on wild-type PC9 and gefitinib-resistant PC9/GR cell lines. […] Subtoxic concentrations of 25, 50, and 75 μM were employed to ensure specificity for drug-resistant phenotypes while preserving normal cell viability. […] To assess long-term proliferative potential, clonogenic survival assays were performed. Cells pretreated with 4l (24 h) were trypsinized to generate single-cell suspensions, plated at 300 cells/well, and cultured for 14 days. […] Cell migration ability was evaluated by the scratch healing assay. […] To evaluate the pro-apoptotic efficacy of 4l, we employed a dual-staining approach using Annexin V-FITC and propidium iodide (PI) for quadrant-specific quantification of programmed cell death. Annexin V binds externalized phosphatidylserine (PS), a hallmark of early apoptosis, while PI permeabilization discriminates late-stage apoptotic or necrotic cells.
(§3) The human normal lung epithelial cell line BEAS-2B, non-small cell lung carcinoma (NSCLC) cell line PC9, and gefitinib-resistant PC9/GR cell line were purchased from Procell Life Science & Technology Co., Ltd. (Wuhan, China). All cell lines were maintained in RPMI-1640 medium (BI, Beit Haemek, Mateh Asher, Israel) supplemented with 10% fetal bovine serum (FBS, Gibco, Thermo Fisher Scientific, Waltham, MA, USA) and 1% penicillin–streptomycin–amphotericin B sterile solution (Solarbio, Beijing, China). Cells were cultured at 37 °C in a humidified incubator with 5% CO2. For subculturing, cells were harvested using trypsin-EDTA solution upon reaching 70–80% confluence and resuspended at appropriate densities for subsequent experiments.
(§4) MTT: Cells (5 × 10^4/mL) were treated with 4l (25–100 μM, 24–48 h), incubated with MTT (10 μL/well, 4–6 h), and dissolved in DMSO. Absorbance (490 nm) was measured to assess viability.

PC9/GR cells [3] = assay: Intracellular total cholesterol quantification, PC9/GR cells; assay type: cell-based, human
Description: as §1

PC9/GR cells [4] = assay: BODIPY 493/503 lipid droplet staining; assay type: cell-based, human
Source text: To investigate the relationship between intracellular cholesterol levels and gefitinib resistance, we measured cholesterol content in PC9 (gefitinib-sensitive) and PC9/GR (gefitinib-resistant) cells. […] To further elucidate the role of TM7SF2 in mediating the cholesterol-lowering effects of compound 4l in PC9/GR cells, we generated a TM7SF2-overexpressing PC9/GR cell line via plasmid transfection.

[5] = system: p38 activation / C/EBPβ expression; assay: Western blot of p38, p-p38 and C/EBPβ; assay type: cell-based, human; settings: PC9/GR
Source text: We obtained the gene promoter sequence of TM7SF2 from the NCBI database and utilized online databases JASPAR, UCSC, and hTFtarget to predict potential transcription factors for TM7SF2 (Table S2). […] Some studies indicate that p38 can induce C/EBPβ expression through the activation of p38 MAPK, JNK, or ERK in different experimental environments. We conducted Western blot experiments to detect changes in C/EBPβ expression and p38 protein activation and used ChIP and qPCR to determine whether C/EBPβ can target the TM7SF2 promoter region. […] Furthermore, the strength of this direct binding may be related to intracellular cholesterol levels.
Western blot: Proteins extracted with RIPA buffer were quantified (BCA), separated by SDS-PAGE, transferred to PVDF membranes, and probed with antibodies. Signals were detected by ECL.

[6] = system: PC9/GR nude mouse xenografts; assay: PC9/GR nude mouse xenograft tumor growth; assay type: in vivo, BALB/c nude mice
Source text: (§5) For many years, the technique of implanting human tumor cell lines into nude mice models has been widely used to predict the anti-cancer effects of targeted anti-cancer drugs. In the nude mouse tumor implantation experiment, we continuously monitored the changes in the mouse body weight after administration. […] At the end of the experiment, after euthanizing the nude mice using the spinal dislocation method, we isolated the tumor tissues, weighed them, and conducted statistical analysis.
(§6) BALB/c nude mice (n = 12) were subcutaneously injected with PC9/GR cells (1 × 10^7 cells/mouse). When tumors reached 50 mm^3, mice received daily 4l or vehicle (3 weeks). Tumor volume (0.52 × length × width^2) and weight were recorded post-euthanasia.

PC9/GR cells [7] = assay: MTT anti-proliferation assay, gefitinib-resistant PC9/GR cells; assay type: cell-based, human; settings: for MTT, PC9/GR, value relative to control (=100), single replicate: 24 h
Description: as §2, §3, §4

PC9/GR cells [8] = assay: Transwell migration assay; assay type: cell-based, human
Description: Cell migration was assessed using Transwell chambers (8.0 µm pore size; Corning, NY, USA). Cells suspended in serum-free medium were seeded into the upper chamber. The lower chamber contained 1 mL of DMEM supplemented with 10% FBS as a chemoattractant. Following 24 h of incubation, non-migrated cells on the upper membrane surface were removed. Migrated cells adherent to the lower membrane surface were fixed, stained with 0.1% crystal violet (Solarbio, China) for 15 min, and imaged. Migrated cells were quantified by counting five random fields per insert under a light microscope (Olympus, Tokyo, Japan).

PC9/GR cells [9] = assay: Scratch (wound) healing assay; assay type: cell-based, human; settings: for relative wound healing area: vehicle control 44.08%
Description: PC9/GR cells were grown to 90% confluence. A uniform wound was created in the monolayer using a sterile 200 µL pipette tip. The initial wound area was imaged immediately (0 h) using phase-contrast microscopy. After 24 h of incubation in complete medium, the wound area was re-imaged. The relative wound closure rate was calculated from the change in wound area using ImageJ software (version 1.53).

[10] = Body weight / toxicity monitoring in tumor-bearing nude mice; assay type: in vivo, BALB/c nude mice
Source text: as §5, §6

[11] = TM7SF2-overexpressing PC9/GR cells
[12] = fourth column = 75 μM by match with b18
[13] = second column = 25 μM by match with b18
[14] = third column = 50 μM by match with b18

For O=C(NCCc1cc(Br)c(O)c(Br)c1)Nc1ccc(F)cc1 [4l, 1-(3,5-dibromo-4-hydroxyphenethyl)-3-(4-fluorophenyl)urea], the intracellular cholesterol levels (PC9 cells [1]) was “no significant effect”, the “MTT, PC9, value relative to control (=100), single replicate” value (from here on “MTT, PC9, value relative to control”) (PC9 cells [2]; 25 (μM)) was 96.45 and 96.61 and 99.63 and 98.61 and the “MTT, PC9, value relative to control” value (PC9 cells [2]; 50 (μM)) was 81.78 and 87.43 and 80.72 and 89.73. The “MTT, PC9, value relative to control” value (PC9 cells [2]; 75 (μM)) was 88.89 and 73.34 and 79.63 and 70.04, the “MTT, PC9, value relative to control” value (PC9 cells [2]; 100 (μM)) was 57.64 and 69.62 and 60.69 and 61.33 and the IC50 (PC9 cells [2]; Homo sapiens, PC-9, wild-type PC9, MTT, 24-hour treatment, 0–100 μM, read-out: IC50, growth inhibition) was 136 µM. For the same compound, the intracellular cholesterol levels (PC9/GR cells [3]; PC9/GR, 24 h treatment) was “reduced intracellular cholesterol levels”, the “effect of TM7SF2 overexpression on the 4l-induced change in intracellular cholesterol” value (PC9/GR cells [3]; [11]) was “abrogated the reduction in intracellular cholesterol levels” and the lipid droplet accumulation (PC9/GR cells [4]) was “significantly inhibited this lipid accumulation”. For the same compound, the “C/EBPβ expression and p38 activation” value [5] was “reduce C/EBPβ expression by inhibiting p38 activation”, the “tumor growth inhibition compared to gefitinib-treated group” value ([6]; 200 mg/kg of gefitinib and compound 4l) was “stronger inhibitory effect” and the “in vivo growth of PC9/GR xenografts (tumor volume)” value ([6]; 200 mg/kg, daily, 3 weeks, p < 0.05) was “effectively inhibited; also recorded: significant suppression; also recorded: significantly inhibited tumor growth”. For the same compound, the excised tumor weight ([6]; end of experiment) was “consistent with the volume data”, the “MTT, PC9/GR, value relative to control (=100), single replicate” value (“MTT, PC9/GR, value relative to control” below) (PC9/GR cells [7]; 25 (μM)) was 50.73 and 45.72 and 48.62 and 42.88 and the “MTT, PC9/GR, value relative to control” value (PC9/GR cells [7]; 50 (μM)) was 40.96 and 39.65 and 38.32 and 38.58. For the same compound, the “MTT, PC9/GR, value relative to control” value (PC9/GR cells [7]; 75 (μM)) was 35.79 and 34.89 and 36.33 and 34.75, the “MTT, PC9/GR, value relative to control” value (PC9/GR cells [7]; 100 (μM)) was 32.66 and 25.67 and 34.43 and 24.78 and the IC50 (PC9/GR cells [7]; Homo sapiens, gefitinib-resistant PC9/GR, MTT, 24-hour treatment, 0–100 μM, read-out: IC50, growth inhibition) was 35.2 µM. For the same compound, the “PC9/GR cell motility (Transwell migration)” value (PC9/GR cells [8]; 25, 50 and 75 μM) was “significant suppression”, the “effect of TM7SF2 overexpression on 4l inhibition of migration, proliferation and invasion” value (PC9/GR cells [8]; [11]) was “attenuated the inhibitory effects” and the “relative wound healing area” value (PC9/GR cells [9]; 25 μM) was 25.32%. The “relative wound healing area” value (PC9/GR cells [9]; 50 μM) was 27.45%, the “relative wound healing area” value (PC9/GR cells [9]; 75 μM) was 15.45% and the “relative wound healing area, mean of replicates” value (PC9/GR cells [9]; [12]) was 15.4595. The “relative wound healing area, single replicate” value (PC9/GR cells [9]; [12]) was 9.798 and 22.5542 and 10.9511 and 18.5341, the “relative wound healing area, mean of replicates” value (PC9/GR cells [9]; [13]) was 25.3251 and the “relative wound healing area, single replicate” value (PC9/GR cells [9]; [13]) was 23.8842 and 10.9955 and 36.4639 and 29.9568. The “relative wound healing area, mean of replicates” value (PC9/GR cells [9]; [14]) was 27.4562, the “relative wound healing area, single replicate” value (PC9/GR cells [9]; [14]) was 33.9434 and 27.2189 and 28.6416 and 20.021 and the “mouse body weight after administration” value ([10]; 200 mg/kg, 21 days) was “no significant decrease or fluctuation”. For the same compound, the “toxicity to nude mice / systemic toxicity” value ([10]; dosage used in the xenograft experiment) was “did not have significant toxicity; also recorded: without eliciting systemic toxicity; also recorded: without inducing systemic toxicity”.
